Data reported in patent US20110300570A1, “METHOD AND SYSTEM FOR GENERATING SPATIALLY AND TEMPORALLY CONTROLLABLE CONCENTRATION GRADIENTS” (THE BRIGHAM AND WOMEN'S HOSPITAL, INC., priority 2008, published 2011).

How the values were obtained:
[1] = tested on: HL-1 cells; assay: Cytotoxicity testing of a stabilized toxin concentration gradient on HL-1 cells in the microfluidic channel; format: cell-based
Method: HL-1 cells (Cardiac muscle cell line) were cultured with medium containing 87% Claycomb Medium, 10% Fetal Bovine Serum (FBS), 1% Penicillin/Streptomycin, 1% Norepinephrine, and 1% L-Glutamine at 37° C. in a humidified 5% CO2/95% air incubator. To enhance the cell adhesion, the bottom glass slide was coated with a mixture of extracellular matrix (0.02% gelatin (w/w) and 5 μg/mL fibronectin) after the top channel was bonded to the bottom glass slide. To seed the cells into the microfluidic device, the cells were trypsinized and seeded through the outlet port using dynamic seeding at a cell density of 2×10^6 cells mL-1 that allowed uniform cell distribution. Cells were cultured for 2 h to ensure attachment. The medium was then changed and 3 drops of 2 μL medium containing 20 mM Alpha-cypermethrin were introduced by passive pumping and a concentration gradient was established by leaving the microfluidic device in the hood for 5 min to allow for evaporation-induced backflow. The microfluidic device was then transferred to a humidified incubator where the concentration gradient of the toxin was stabilized and the cells were treated for 4 h. […] ImageJ was used to quantify the fluorescence images of live-dead staining of the cells. At least three images were used for quantification of the cell viability. […]

[2] = tested on: HL-1 cells; assay: Cytotoxicity testing with HL-1 cells seeded in a 96-well plate; format: cell-based; conditions: HL-1 cells in 96-well plate, various concentrations of toxin
Method: In this example, the stabilized, spatially and temporally controllable concentration gradient technique is utilized for cytotoxicity testing. A cardiac muscle cell line (HL-1) is used to investigate the cytotoxicity of Alpha-cypermethrin, a cardiac toxin. Three drops of 2 μL medium containing 20 mM Alpha-cypermethrin were loaded consecutively into the micro-devices with HL-1 cells seeded along the channel. […] The cytotoxicity of the toxin gradient was further tested on the HL-1 cells by conducting a live-dead assay. […] According to the correlation between cell viability and morphology changes with respect to Alpha-cypermethrin concentration obtained from the toxicity testing on HL-1 cells seeded in 96-well plates, the experimental conditions used in this example established a concentration gradient of the toxin from 12.5 mM to 0 mM along the 5 cm-length channel based on the assay conducted in this example.

Compound: CC1(C)C(C=C(Cl)Cl)C1C(=O)OC(C#N)c1cccc(Oc2ccccc2)c1 (stereo not drawn) [Alpha-cypermethrin]
- cell morphology along the channel ([1]; HL-1 cells exposed 4 h to toxin gradient (loaded 20 mM; gradient 12.5 mM to 0 mM along 5 cm channel)): more severe effects observed in the regions containing higher concentrations of toxin
- cell viability (live-dead assay) ([1]; HL-1 cells exposed 4 h to toxin gradient along the channel): correlation of cell viability was found with the toxin concentration gradient
- cell morphology [2]: drastic morphological change
